System: Ctenocephalides felis, Diabrotica undecimpunctata, Nephotettix cincticeps, Rhipicephalus sanguineus
Test: Parasiticidal and pesticidal tests, Methods A to E taken together (active in one or more of the tests, test not specified)
Assay type: in vivo
Conditions: active = at least 90% control (A, 5 ppm or less), 90% (B, 10 ppm), 98% mortality (C, 100 ppm), 70% (D, 1000 ppm) or 70% (E, 100 ppm); test not given per compound
Experimental: The following representative test procedures, using compounds of the invention, were conducted to determine the parasiticidal and pesticidal activity of compounds of the invention.
Method A: Screening Method to Test Systemicity of Compounds Against Ctenocephalides Felis (Cat Flea)
A test container was filled with 10 adults of Ctenocephalides felis. A glass cylinder was closed on one end with parafilm and placed on top of the test container. The test compound solution was then pipetted into bovine blood and added to the glass cylinder. The treated Ctenocephalides felis were held in this artificial dog test (blood 37° C., 40-60% relative humidity; Ctenocephalides felis 20-22° C., 40-60% relative humidity) and assessment performed at 24 and 48 hours after application.
Active compounds gave at least 90% control of Ctenocephalides felis at a test concentration of 5 ppm or less.
Method B: Diabrotica Undecimpunctata (Southern Corn Rootworm) Screen
Two days before application, seeds of maize were soaked in water under warm conditions to elicit fast germination. One day before application, eggs of Diabrotica undecimpunctata were transferred to one half of a Japanese filter paper placed in a plastic petri dish. Afterwards, a sprouted maize seed was placed on a moistened pad beside the filter paper. Three drops of 200 microlitres of test compound solution were carefully pipetted onto the egg. The remainder of the solution was placed on the maize and then the Petri dish was closed. The treated eggs in the Petri dishes were held in a climate chamber for 6 days. The compound efficacy (percentage of dead eggs and/or larvae in comparison to untreated control) was assessed 6 days after application using a binocular microscope. […]
The leaves of 12 rice plants having a stem length of 8 cm were dipped for 5 seconds into an aqueous solution of the formulated test compound. […] After 6 days storage, the percentage mortality of leafhopper larvae was determined. […]
Solutions of the test compounds were dropped onto filter paper, dried and the filter paper placed into test tubes and infested with 10 adults of Ctenocephalides felis. The treated Ctenocephalides felis were held in a climate chamber (26° C., 80% RH) and the percentage efficacy assessed 24 hours and 48 hours after application in comparison with the untreated control. […]
Solutions of the test compounds were dropped onto filter paper, dried and the filter paper placed into test tubes and infested with 20-30 larvae (L1) of Rhipicephalus sanguineus and the tubes closed with a clip. The treated Rhipicephalus sanguineus were held in a climate chamber (25° C., 90% RH) and the percentage efficacy assessed 24 hours after application in comparison with the untreated control. […]

Structure (SMILES)	active in one or more of the above tests
CNc1c(S(=O)(=O)C(F)(F)F)c(C(=N)N(C)OCc2ccc(C(F)(F)F)cc2)nn1-c1c(Cl)cc(C(F)(F)F)cc1Cl [Compound 4-128, 1-(2,6-Dichloro-4-trifluoromethylphenyl)-3-[N-methyl-N-(4-trifluoromethylbenzyloxy)-2-amidino]-5-methylamino-4-trifluoromethylsulfonylpyrazole]	active
CNc1c(S(=O)(=O)C(F)(F)F)c(C(N)=NOCc2ccccc2)nn1-c1c(Cl)cc(C(F)(F)F)cc1Cl [Compound 1-49, 1-(2,6-Dichloro-4-trifluoromethylphenyl)-3-(N-benzyloxy-2-amidino)-5-methylamino-4-trifluoromethylsulfonylpyrazole]	active
CNc1c([S+]([O-])C(F)(F)F)c(C(=N)N(C)OCc2ccc(C(F)(F)F)cc2)nn1-c1c(Cl)cc(C(F)(F)F)cc1Cl (stereo not shown) [Compound 4-93, 1-(2,6-Dichloro-4-trifluoromethylphenyl)-3-[N-methyl-N-(4-trifluoromethylbenzyloxy)-2-amidino]-5-methylamino-4-trifluoromethylsulfinylpyrazole]	active
CNc1c([S+]([O-])C(F)(F)F)c(C(=N)N(C)OCc2c(Cl)cccc2Cl)nn1-c1c(Cl)cc(C(F)(F)F)cc1Cl (stereo not shown) [Compound 4-82, 1-(2,6-Dichloro-4-trifluoromethylphenyl)-3-[N-(2,6-dichlorobenzyloxy)-N-methyl-2-amidino]-5-methylamino-4-trifluoromethylsulfinylpyrazole]	active

Reference: US7514428B2, “Pesticidal 1-aryl-3-amidoxime-pyrazole derivatives” (Merial Limited, priority 2002, dated 2009)
